Reference: US20210261636A1, “NEOANTIGENS EXPRESSED IN MULTIPLE MYELOMA AND THEIR USES” (Janssen Biotech, Inc., priority 2020, published 2021)

How the values were obtained:
CD8+ T cells = assay: Exogenous autologous healthy donor restimulation assay, TNFα and IFNγ production by CD8+ T cells; format: cell-based, human; design: Frequency (TNFα+ IFNγ+ CD8 T cells): unit not given here; conditions: for Fold change (CD8+) vs. DMSO: maximum CD8+ T-cell response (TNFα and IFNγ); for Fold change (CD8+) vs. DMSO / Frequency (TNFα+ IFNγ+ CD8 T cells): donor independent, peptide pool 10 μg/mL, healthy donors; for Frequency (TNFα+ IFNγ+ CD8 T cells): maximum CD8+ T-cell response; for Immunogenic (yes/no): positive if CD8+ and/or CD4+ double positive TNFα/IFNγ frequency >=3-fold over DMSO and at least 0.01%
Method: (§1) Immunogenicity responses were measured by estimating TNFα IFNγ double positive cells in the CD4+ and/or CD8+ T-cell populations. A response is considered positive if TNFα IFNγ double positive fraction was greater than or equal to three-fold over unstimulated cells (DMSO negative control) with a minimum frequency >=0.01%. […]
(§2) Overlapping 15-mer peptides were designed to span each indicated neoantigen. Their ability to activate T cells was assessed using known methods, such as the assay defnied as exogenous autologous normal donor restimulation assay. The peptides were used as pools using TNFα and IFNγ production by CD8^+ and CD4^+ T cells as a readout. Maximum frequency of CD8^+TNFα^+IFNγ^+ and CD4^+TNFα^+IFNγ^+ T cells and maximum fold change over background for each pool of peptides were analyzed, which were calculated as the highest frequency of CD8^+ TNFα^+IFNγ^+ and CD4^+ TNFα^+IFNγ^+ T cells and resulting fold change across the normal donors evaluated for the peptide.
(§3) CD1c+Dendritic Cells (CD1c+DC) isolated from human healthy PBMCs were thawed using media (IMDM (Gibco) supplemented with glutamine, HEPES, 5% human serum (Sigma), and 1× Pen-Strep). DC cells were resuspended in media supplemented with IL-4 (Peprotech, 20 ng/mL) and GM-CSF (Gibco, 20 ng/mL), plated in 6 well microplates, and rested overnight at 37° C. and 5% CO2 incubator. The following day, DC cells were counted and plated in a 96 well round bottom microplate at a concentration of 30,000 viable cells per well. Lyophilized neoantigen peptide pools (15-mer peptides with 8-mer overlapping peptide sequences) were solubilized in 100% DMSO with a stock concentration of 20 mg/mL Neoantigen peptides pools were added to DCs for a final concentration of 10 μg/mL and rested for 2 hours at 37° C. and 5% CO2 incubator. CEF Peptide Pool “Plus” (Cellular Technologies, Ltd.) was utilized as a positive control (each viral peptide at a final concentration of 4 ug/ml) and DMSO at the same final concentration (0.05%) as the experimental peptides was utilized as a negative control. After 2 hours, DC cells were irradiated with 50 gray of ionizing radiation. Autologous CD3+ Pan-T cells isolated from human normal PBMCs were thawed using media. Following irradiation, autologous Pan-T cells were added to the irradiated DCs at 300,000 viable cells per well. Human IL-15 (Peprotech) was added to all wells at final concentration of 10 ng/ml. Plates were incubated at 37° C. and 5% CO2 incubator for a total of 12 days. Media was refreshed every 2-3 days with IL-15 (R&D System, 10 ng/mL final concentration) and IL-2 (R&D systems, 10 IU/mL final concentration).
(§4) On Day 11, cells were re-stimulated with identical experimental peptide pools or controls, at same concentration as peptide stimulation on Day 1. Protein Inhibitor Cocktail (eBioscience) was added to every well and plate was incubated overnight for 14-16 hours at 37° C. and 5% CO2 incubator. On Day 12, cells were stained for surface and intracellular flow cytometry analysis. The cells were washed with PBS and stained with Live/Dead Fixable Aqua Dead Cell stain (Thermo-Fisher). Following the live/dead stain, cells were blocked using Biotin-Free Fc Receptor Blocker (Accurate Chemical & Scientific Corp). Extracellular cellular flow panel (1 μL/antibody per well in 50 μL) consisted of CD3 PerCP-Cy5.5 (Biolegend), CD4 BV421 (Biolegend), and CD8 APC-Cy7 (Biolegend). After extracellular staining, cells were fixed and permeabilized using Foxp3/Transcription Factor Staining Buffer Set (eBioscience) and stained for intracellular proteins (1:50 dilution) using TNFα FITC (R&D Systems) and IFNγ BV785 (Biolegend). Cells were washed and resuspended in stain buffer, analyzed, and recorded in a BD Celesta flow cytometer.
(§5) Flow cytometry analysis was conducted on FlowJo v10.6 software. Cells were gated on live, singlet, CD3+, CD4+ and CD8+ T cells. The CD8+ and CD4+ T cells were analyzed for TNFα and IFNγ expression. […]

CD4+ T cells = assay: Exogenous autologous healthy donor restimulation assay, TNFα and IFNγ production by CD4+ T cells; format: cell-based, human; design: Frequency (TNFα+ IFNγ+ CD4 T cells): unit not given here; conditions: donor independent, peptide pool 10 μg/mL, healthy donors; for Fold change (CD4+) vs. DMSO: maximum CD4+ T-cell response (TNFα and IFNγ); for Frequency (TNFα+ IFNγ+ CD4 T cells): maximum CD4+ T-cell response
Method: as §1, §2, §3, §4, §5

Sequence	Fold change (CD8+) vs. DMSO (CD8+ T cells)	Frequency (TNFα+ IFNγ+ CD8 T cells) (CD8+ T cells)	Immunogenic (yes/no) (CD8+ T cells)	Fold change (CD4+) vs. DMSO (CD4+ T cells)	Frequency (TNFα+ IFNγ+ CD4 T cells) (CD4+ T cells)
YGVYVINQKGHSGCIWSMDGEGRLETAWPVWKRGRCPGKRR [AS15, alternative splicing, B4GALT2]	290	0.029	Yes	2469.136	0.9
GGPPFVGPLRGPRAQPSLSGLCGRRTGSRDTIKIPGQT [FUS42, gene fusion RBM42-> ETV2]	14.72	0.027	Yes	9.54	0.11
VYYLYKNVAYKGSDID [AS86, alternative splicing, ATP10B]	2.7	0.018	Yes	12.54	0.019
RQLQQQLSSLSGPEGVPFLKLWCLDDLLSTLLGTCRCPSRAQF [FUS57, gene fusion MED12-> NLGN3]	17.2	0.14	Yes	11.65	0.24
IENEGGQVRSRPAPS [AS56, alternative splicing, ADGRE5]	5	0.069	Yes	3.71	0.019
SQKQPALKCLLRNNRP [AS84, alternative splicing, ANKRD36]	162.14	4.54	Yes	10.66	0.019
QIIYDENRTMQIFVKT [FUS28, gene fusion NCOR2-> UBC]	247.49	0.37	Yes	1.13	0.009
IEKSISARITEQ [FUS36, gene fusion TNFRSF17-> SNX29]	8.7	0.013	Yes	4.69	0.008
IIMALAILDLFAVLKIEAHKQLLLKSFCYGAGK [AS113, alternative splicing, CLCC1]	5.07	0.38	Yes	5.7	0.009
IMLIGNKSNCQKQLLRDMKILNEFYHGLILTLQLS [AS126, alternative splicing, RAB2B]	161.72	0.49	Yes	6.861	0.04
DPTTKRSRLTPKLHFLVERNPRWSQEQRKYL [AS92, alternative splicing, MSI2]	41.24	0.073	Yes	31.67	0.048
